Experimental data reported in patent publication US20110071165A1, “Aza- and polyazanthranyl amides and their use as medicaments” (NOVARTIS AG, priority 2000, published 2011).

Target: VEGFR II (KDR) kinase (Homo sapiens, UniProt P35968)
Experiment: Inhibition of KDR kinase activity (33P-ATP incorporation into poly-(Glu4Tyr), phosphocellulose filter)
Format: biochemical
Details: 10 minutes at room temperature; substrate poly-(Glu4Tyr)
Procedure: Stock solutions Stock solution A: 3 mM ATP in water pH 7.0 (−70° C.) Stock solution B: g-33P-ATP 1mCi/100 μl Stock solution C: poly-(Glu4Tyr) 10 mg/ml in water
• Substrate solvent: 10 mM DTT, 10 mM manganese chloride 100 mM magnesium chloride • Enzyme solution: 120 mM Tris/HCl, pH 7,5, 10 μM sodium vanadium oxide
10 μl of substrate mix [10 μl vol ATP stock solution A+25 μCi g-33P-ATP (ca. 2.5 μl of stock solution B)+30 μl poly-(Glu4Tyr) stock solution C+1.21 ml substrate solvent], 10 μl inhibitor solution [substances corresponding to the dilutions, as a control 3% DMSO in substrate solvent] and 10 μl enzyme solution [11.25 μg enzyme stock solution (KDR or FLT-1 kinase) are diluted at 4° C. in 1.25 ml enzyme solution], are added to a tapering microtitre plate (without protein binding). The mixture is mixed thoroughly and incubated for 10 minutes at room temperature. Subsequently, 10 μl of stop solution (250 mM EDTA, pH 7.0) is added, mixed and 10 μl of the solution transferred to a P 81 phosphocellulose filter. Is is subsequently washed several times in 0.1 M phosphoric acid. The filter paper is dried, coated with MeltiLex and measured in a MicroBeta counter.
The IC50 values are determined from the concentration of inhibitor required to inhibit the phosphate incorporation to 50% of the uninhibited incorporation after deducting the reference value (EDTA-stopped reaction).

Chain of VEGFR II (KDR) kinase (P35968 20-1356, species assumed): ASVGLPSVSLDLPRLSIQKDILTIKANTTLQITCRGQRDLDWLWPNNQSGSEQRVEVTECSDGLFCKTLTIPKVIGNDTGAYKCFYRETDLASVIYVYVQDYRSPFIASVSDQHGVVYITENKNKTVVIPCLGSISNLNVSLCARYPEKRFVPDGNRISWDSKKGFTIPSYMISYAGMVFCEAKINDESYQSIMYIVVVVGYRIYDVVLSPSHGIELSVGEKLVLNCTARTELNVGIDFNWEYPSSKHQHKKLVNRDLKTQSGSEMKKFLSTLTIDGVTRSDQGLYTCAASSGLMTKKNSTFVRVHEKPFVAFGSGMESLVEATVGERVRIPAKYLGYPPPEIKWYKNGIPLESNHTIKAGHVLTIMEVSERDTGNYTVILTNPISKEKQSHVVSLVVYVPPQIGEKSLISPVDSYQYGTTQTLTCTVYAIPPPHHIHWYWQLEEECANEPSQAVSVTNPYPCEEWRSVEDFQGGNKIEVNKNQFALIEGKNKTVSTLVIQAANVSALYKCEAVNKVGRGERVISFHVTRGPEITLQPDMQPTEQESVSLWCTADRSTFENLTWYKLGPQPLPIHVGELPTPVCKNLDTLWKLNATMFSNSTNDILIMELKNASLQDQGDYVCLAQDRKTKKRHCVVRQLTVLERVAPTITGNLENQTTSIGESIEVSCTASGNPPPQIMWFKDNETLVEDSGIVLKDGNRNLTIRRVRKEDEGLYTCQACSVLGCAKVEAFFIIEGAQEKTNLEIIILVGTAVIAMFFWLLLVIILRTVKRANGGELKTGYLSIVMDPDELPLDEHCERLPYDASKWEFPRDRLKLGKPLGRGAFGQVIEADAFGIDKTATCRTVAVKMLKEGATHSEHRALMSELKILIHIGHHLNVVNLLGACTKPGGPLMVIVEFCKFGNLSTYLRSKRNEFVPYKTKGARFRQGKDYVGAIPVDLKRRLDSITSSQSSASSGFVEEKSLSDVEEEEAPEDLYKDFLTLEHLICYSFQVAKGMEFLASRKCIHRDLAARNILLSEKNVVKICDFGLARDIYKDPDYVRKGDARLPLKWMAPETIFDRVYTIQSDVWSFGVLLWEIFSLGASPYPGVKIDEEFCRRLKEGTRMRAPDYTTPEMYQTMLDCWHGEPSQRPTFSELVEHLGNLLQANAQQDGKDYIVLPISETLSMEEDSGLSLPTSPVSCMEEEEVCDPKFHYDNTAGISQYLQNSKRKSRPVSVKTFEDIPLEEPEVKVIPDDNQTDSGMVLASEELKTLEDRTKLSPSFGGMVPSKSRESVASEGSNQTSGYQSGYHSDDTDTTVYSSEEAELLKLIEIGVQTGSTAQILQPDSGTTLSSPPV

O=C(Nc1cc2ccccc2cn1)c1cncnc1NCc1ccncc1 [Example 2.0, N-isoquinolin-3-yl-4-[(4-pyridyl)methyl]amino-pyrimidine-5-carboxylic acid amide]
IC50: 100 nM

O=C(Nc1cccc(C(F)(F)F)c1)c1cncnc1NCc1ccncc1 [Example 2.1]
IC50: 200 nM
